Laboratory results: the NIST ThermoML archive (doi:10.1016/j.jct.2014.01.023)
Numbers after ± are expanded uncertainties.

Conditions: Crystal; for vapor or sublimation pressure: Transpiration method

CC1C(=O)N(C)C(=O)N(C)C1=O [1,3,5-trimethylbarbituric acid]
Conditions | Normal melting temperature [°C] | vapor or sublimation pressure [kPa]
322.5 K | – | 0.00289 ± 0.00017
328.4 K | – | 0.00528 ± 0.00028
332.6 K | – | 0.00792 ± 0.00044
338.6 K | – | 0.01482 ± 0.00079
343 K | – | 0.02296 ± 0.0013
349.4 K | – | 0.04451 ± 0.0024
354.5 K | – | 0.06767 ± 0.0036
358.6 K | – | 0.09676 ± 0.005
DTA | 90.50 ± 1.6 | –

CN1C(=O)N(C)C(=O)C(C)(C)C1=O [1,3,5,5-tetramethylpyrimidine-2,4,6(1H,3H,5H)-trione]
Conditions | vapor or sublimation pressure [kPa]
323.2 K | 0.00344 ± 0.00019
326.2 K | 0.00457 ± 0.00024
328.2 K | 0.00555 ± 0.0003
332.1 K | 0.00801 ± 0.00043
334.2 K | 0.0099 ± 0.00052
336.2 K | 0.01132 ± 0.0006
338.2 K | 0.01415 ± 0.00076
340.1 K | 0.01647 ± 0.00087
342.9 K | 0.02036 ± 0.0011
346 K | 0.02803 ± 0.0015
347.4 K | 0.03182 ± 0.0017
349.2 K | 0.03555 ± 0.0019
350.1 K | 0.04039 ± 0.0023
351 K | 0.04459 ± 0.0023
351.1 K | 0.04429 ± 0.0023
352.9 K | 0.05014 ± 0.0026
355.2 K | 0.05715 ± 0.003
356.2 K | 0.06561 ± 0.0035
360.2 K | 0.08943 ± 0.0047
365 K | 0.135 ± 0.0071
367.6 K | 0.168 ± 0.0088

CN1C(=O)NC(=O)C(C)(C)C1=O [1,5,5-trimethylbarbituric acid]
Conditions | vapor or sublimation pressure [kPa]
360 K | 0.00265 ± 0.00015
366.1 K | 0.00471 ± 0.00026
366.2 K | 0.00487 ± 0.00026
374.2 K | 0.00972 ± 0.00051
379.6 K | 0.01551 ± 0.00081
380.8 K | 0.01685 ± 0.0009
382.7 K | 0.02034 ± 0.0011
386.8 K | 0.02976 ± 0.0015
387.5 K | 0.02935 ± 0.0015
388.7 K | 0.03375 ± 0.0019
389.7 K | 0.03771 ± 0.002
392.6 K | 0.04726 ± 0.0025
393.7 K | 0.05266 ± 0.0028
396.7 K | 0.06438 ± 0.0034
402.5 K | 0.09884 ± 0.0052
406.7 K | 0.1462 ± 0.0077
410.2 K | 0.187 ± 0.0096
411.7 K | 0.196 ± 0.01
414.2 K | 0.2461 ± 0.013
419.9 K | 0.3607 ± 0.019
427.9 K | 0.6087 ± 0.031
